From patent US10975078B2, “Fused indazole pyridone compounds as antivirals” (priority 2017, dated 2021)
pEC50: −log10 of the molar value.

Tested on: HBsAg secretion, HepG2-Clone42 cells (Tet-inducible HBV-expressing, HBV ayw strain)
Assay: HBsAg assay (HBsAg ELISA, secreted HBV sAg from HepG2-Clone42 cells)
Format: cell-based
Conditions: Hepatitis B virus, read-out: HBsAg (nM), EC50 = concentration at which HBsAg secretion was reduced 50% compared to DMSO control
Method: HepG2-Clone42, a Tet-inducible HBV-expressing cell line with a stably integrated 1.3 mer copy of the HBV ayw strain, was generated based on the Tet-inducible HepAD38 cell line with slight modifications. Ladner S K, et al., Antimicrobial Agents and Chemotherapy. 41(8):1715-1720 (1997). HepG2-Clone42 cells were cultured in DMEM/F-12+Glutamax™ (Life Technologies, Carlsbad, Calif., USA), supplemented with 10% fetal bovine serum (Life Technologies), G-418 (Corning, Manassas, Va., USA) at a final concentration of 0.5 mg/mL, and 5 μg/mL Doxycycline (Sigma, St. Louis, Mo., USA) and maintained in 5% CO2 at 37° C.
HepG2-Clone42 cells were seeded into black clear-bottom 96-well plates at a concentration of 6.0×10^4 cells/well. 24 hours post-seeding, the cells were treated with 200 μl/well of media containing five-fold serial dilutions of compounds in DMSO. DMSO alone was used as the no drug control. The final DMSO concentration in all wells was 0.5%.
The HBsAg ELISA kit (Alpha Diagnostic International, San Antonio, Tex., USE, Catalog #4110) was used to determine the level (semi-quantitative) of secreted HBV sAg. The HBSAg ELISA assay was performed following the manufacturer's protocol as described.
Step 1. Pipet 100 μL each of compound or DMSO treated samples into HBsAg ELISA plates. Seal plates and incubate at room temp for 60 minutes.
Step 2. Aspirate samples and wash three times with Wash Buffer. Dispense 100 μL of antibody-HRP conjugate to each well. Incubate at room temp for 30 minutes.
Step 3. Aspirate samples and wash three times with Wash Buffer. Add 100 μL of TMB Substrate to all wells and incubate 15 minutes at room temp.
Step 4. Dispense 100 μL of Stop Solution to each well. Measure absorbance of ELISA plate at 450 nm.
Dose-response curves were generated and the EC50 value was defined as the compound concentration at which HBsAg secretion was reduced 50% compared to the DMSO control.
EC50 values were determined as follows:
Determine the percent of HBsAg secretion inhibition. Calculate the percent inhibition on of HBsAg secretion inhibition using the following equation: […]
where XC is the absorbance signal from compound-treated well; MB is average absorbance signal (background signal) for column 12 (no cells+HBsAg ELISA sample buffer) and MD is average absorbance signal from DMSO-treated wells. Then calculate EC50 values by non-linear regression using a four parameter curve logistic equation.
The curve fit model employed is XLFit Dose Response One Site Model 204: y=(A+((B−A)/(1+(10^((C−x)*D))))) where A is the minimum y value, B is the maximum y value, C is the log EC50 value, and D is the slope factor. In the following table+≥100 nM; 100 nM>++≥1 nM; 1 nM>+++

First: CC(C)(C)C1Cn2nc3c(OCCC(F)(F)F)cccc3c2-c2cc(=O)c(C(=O)O)cn21 (racemic) [Example 2.40, 6-(tert-butyl)-2-oxo-10-(3,3,3-trifluoropropoxy)-6,7-dihydro-2H-pyrido[2′,1′:3,4]pyrazino[1,2-b]indazole-3-carboxylic Acid]
Second: CC(C)(C)C1Cn2nc3c(OCCO)cccc3c2-c2cc(=O)c(C(=O)O)cn21 (racemic) [Example 2.18, 6-(tert-butyl)-10-(2-hydroxyethoxy)-2-oxo-6,7-dihydro-2H-pyrido[2′,1′:3,4]pyrazino[1,2-b]indazole-3-carboxylic Acid]
The EC50 of the first is lower: less than 1 nM for the first, 1 to 100 nM for the second.

Compared with `CCOc1cccc2c3n(nc12)CC(C(C)(C)C)n1cc(C(=O)O)c(=O)cc1-3` (racemic) [Example 2.42, 6-(tert-butyl)-10-ethoxy-2-oxo-6,7-dihydro-2H-pyrido[2′,1′:3,4]pyrazino[1,2-b]indazole-3-carboxylic Acid], `CC(C)(C)C1Cn2nc3c(OCC4CNC4)cccc3c2-c2cc(=O)c(C(=O)O)cn21` (racemic) [Example 2.32, 10-(azetidin-3-ylmethoxy)-6-(tert-butyl)-2-oxo-6,7-dihydro-2H-pyrido[2′,1′:3,4]pyrazino[1,2-b]indazole-3-carboxylic Acid] is higher in EC50: less than 1 nM for the first, greater than 100 nM for the second. The first is the more potent here.

`COCCOCCCOc1cccc2c3n(nc12)CC(C(C)(C)C)n1cc(C(=O)O)c(=O)cc1-3` (racemic) [Example 2.21, 6-(tert-butyl)-10-(3-(2-methoxyethoxy)propoxy)-2-oxo-6,7-dihydro-2H-pyrido[2′,1′:3,4]pyrazino[1,2-b]indazole-3-carboxylic Acid] and `COCCCOc1cccc2c3n(nc12)CC(C(C)(C)C)n1cc(C(=O)O)c(=O)cc1-3` (racemic) [Example 2.31, 6-(tert-butyl)-10-(3-methoxypropoxy)-2-oxo-6,7-dihydro-2H-pyrido[2′,1′:3,4]pyrazino[1,2-b]indazole-3-carboxylic Acid] cannot be ordered by EC50: less than 1 nM for the first, less than 1 nM for the second.

First: CC(C)(C)C1Cn2nc3c(OCC4CCOCC4)cccc3c2-c2cc(=O)c(C(=O)O)cn21 (racemic) [Example 2.44, 6-(tert-butyl)-2-oxo-10-((tetrahydro-2H-pyran-4-yl)methoxy)-6,7-dihydro-2H-pyrido[2′,1′:3,4]pyrazino[1,2-b]indazole-3-carboxylic Acid]
Second: CC(C)(C)C1Cn2nc3c(OCC4CC(F)(F)C4)cccc3c2-c2cc(=O)c(C(=O)O)cn21 (racemic) [Example 2.39, 6-(tert-butyl)-10-((3,3-difluorocyclobutyl)methoxy)-2-oxo-6,7-dihydro-2H-pyrido[2′,1′:3,4]pyrazino[1,2-b]indazole-3-carboxylic Acid]
The EC50 of the first is higher: 1 to 100 nM for the first, less than 1 nM for the second.

First: CC(C)(C)C1Cn2nc3c(OCCN4CCCC4=O)cccc3c2-c2cc(=O)c(C(=O)O)cn21 (racemic) [Example 2.20, 6-(tert-butyl)-2-oxo-10-(2-(2-oxopyrrolidin-1-yl)ethoxy)-6,7-dihydro-2H-pyrido[2′,1′:3,4]pyrazino[1,2-b]indazole-3-carboxylic Acid]
Second: CC(C)OCCOc1cccc2c3n(nc12)CC(C(C)(C)C)n1cc(C(=O)O)c(=O)cc1-3 (racemic) [Example 2.15, 6-(tert-butyl)-10-(2-isopropoxyethoxy)-2-oxo-6,7-dihydro-2H-pyrido[2′,1′:3,4]pyrazino[1,2-b]indazole-3-carboxylic Acid]
The EC50 of the first is higher: 1 to 100 nM for the first, less than 1 nM for the second.

First: COCC1(COc2cccc3c4n(nc23)CC(C(C)(C)C)n2cc(C(=O)O)c(=O)cc2-4)CCC1 (centres unmarked) [Example 2.4, 6-(tert-butyl)-10-((1-(methoxymethyl)cyclobutyl)methoxy)-2-oxo-6,7-dihydro-2H-pyrido[2′,1′:3,4]pyrazino[1,2-b]indazole-3-carboxylic Acid]
Second: CC1(COc2cccc3c4n(nc23)CC(C(C)(C)C)n2cc(C(=O)O)c(=O)cc2-4)COC1 (racemic) [Example 2.45, 6-(tert-butyl)-10-((3-methyloxetan-3-yl)methoxy)-2-oxo-6,7-dihydro-2H-pyrido[2′,1′:3,4]pyrazino[1,2-b]indazole-3-carboxylic Acid]
The EC50 of the first is higher: greater than 100 nM for the first, 1 to 100 nM for the second. The second is the more potent here.

Same assay, conditions: read-out: HBsAg, EC50 = concentration at which HBsAg secretion was reduced 50% compared to DMSO control

First: COc1cccc2c3n(nc12)CC(C(C)(C)CO)n1cc(C(=O)O)c(=O)cc1-3 (single isomer, unassigned) [Example 3.1-II, 6-(1-hydroxy-2-methylpropan-2-yl)-10-methoxy-2-oxo-6,7-dihydro-2H-pyrido[2′,1′:3,4]pyrazino[1,2-b]indazole-3-carboxylic Acid]
Second: COCC(C)(C)C1Cn2nc3c(OC)cccc3c2-c2cc(=O)c(C(=O)O)cn21 (single isomer, unassigned) [Example 4.1-I, 10-methoxy-6-(1-methoxy-2-methylpropan-2-yl)-2-oxo-6,7-dihydro-2H-pyrido[2′,1′:3,4]pyrazino[1,2-b]indazole-3-carboxylic Acid]
The pEC50 of the first is lower: 7.00 to 9.00 for the first, greater than 9.00 for the second.

`COc1cccc2c3n(nc12)CC(C(C)(C)CO)n1cc(C(=O)O)c(=O)cc1-3` (single isomer, unassigned) [Example 3.1-I, 6-(1-hydroxy-2-methylpropan-2-yl)-10-methoxy-2-oxo-6,7-dihydro-2H-pyrido[2′,1′:3,4]pyrazino[1,2-b]indazole-3-carboxylic Acid] and `COc1cccc2c3n(nc12)CC(C(C)(C)C)n1cc(C(=O)O)c(=O)cc1-3` (single isomer, unassigned) [Example 1.1-II, 6-(tert-butyl)-10-methoxy-2-oxo-6,7-dihydro-2H-pyrido[2′,1′:3,4]pyrazino[1,2-b]indazole-3-carboxylic acid] cannot be ordered by pEC50: less than 7.00 for the first, less than 7.00 for the second.

Compared with `CC1(C)CCC2C1n1cc(C(=O)O)c(=O)cc1-c1c3cccc(F)c3nn12` (single isomer, unassigned) [Example 5.2-II, 12-fluoro-3,3-dimethyl-7-oxo-2,3,3a,14a-tetrahydro-1H,7H-cyclopenta[5,6]pyrido[2′,1′:3,4]pyrazino[1,2-b]indazole-6-carboxylic Acid], `COCCOc1cccc2c3n(nc12)C1CCC(C)(C)C1n1cc(C(=O)O)c(=O)cc1-3` (single isomer, unassigned) [Example 6.2-II, 12-(2-methoxyethoxy)-3,3-dimethyl-7-oxo-2,3,3a,14a-tetrahydro-1H,7H-cyclopenta[5,6]pyrido[2′,1′:3,4]pyrazino[1,2-b]indazole-6-carboxylic Acid] is higher in pEC50: less than 7.00 for the first, greater than 9.00 for the second. The second is the more potent here.

First: COCCOc1cccc2c3n(nc12)CC(C(C)(C)C)n1cc(C(=O)O)c(=O)cc1-3 (single isomer, unassigned) [Example 2.2-II, 6-(tert-butyl)-10-(2-methoxyethoxy)-2-oxo-6,7-dihydro-2H-pyrido[2′,1′:3,4]pyrazino[1,2-b]indazole-3-carboxylic Acid]
Second: COCCCOc1cccc2c3n(nc12)CC(C(C)(C)C)n1cc(C(=O)O)c(=O)c(F)c1-3 (single isomer, unassigned) [Example 8.1-II, 6-(tert-butyl)-1-fluoro-10-(3-methoxypropoxy)-2-oxo-6,7-dihydro-2H-pyrido[2′,1′:3,4]pyrazino[1,2-b]indazole-3-carboxylic Acid]
The pEC50 of the first is higher: greater than 9.00 for the first, 7.00 to 9.00 for the second. The first is the more potent here.

`COc1ccc2c3n(nc2c1)CC(C(C)(C)C)n1cc(C(=O)O)c(=O)cc1-3` (single isomer, unassigned) [Example 1.2-II, 6-(tert-butyl)-11-methoxy-2-oxo-6,7-dihydro-2H-pyrido[2′,1′:3,4]pyrazino[1,2-b]indazole-3-carboxylic acid] and `COc1cccc2nn3c(c12)-c1cc(=O)c(C(=O)O)cn1C(C(C)(C)C)C3` (single isomer, unassigned) [Example 1.4-II, 6-(tert-butyl)-13-methoxy-2-oxo-6,7-dihydro-2H-pyrido[2′,1′:3,4]pyrazino[1,2-b]indazole-3-carboxylic acid] fall in the same range of pEC50: 7.00 to 9.00 for the first, 7.00 to 9.00 for the second.

Compound `COCCCOc1cccc2c3n(nc12)C1CCC(C)(C)C1n1cc(C(=O)O)c(=O)cc1-3` (single isomer, unassigned) [Example 6.1-II, 12-(3-methoxypropoxy)-3,3-dimethyl-7-oxo-2,3,3a,14a-tetrahydro-1H,7H-cyclopenta[5,6]pyrido[2′,1′:3,4]pyrazino[1,2-b]indazole-6-carboxylic Acid] has a pEC50 greater than 9.00.
